Measured values: patent publication US20250281478A1, “METHODS FOR PREVENTING OR TREATING KIDNEY DISEASES” (JEAMOON BEIJING CO., LTD., priority 2022, published 2025)

Legend:
[1] = tested on: mice with adenine-induced renal failure; assay: Survival of mice with adenine-induced renal failure; format: in vivo, C57BL/6N mice; settings: for Survival Rate (%): started 1 week after start of continued 0.25% adenine diet, end of experiment; for Count after Drug Administration (surviving mice): 12 at enrollment
Description: • 1. Experimental Animals: C57BL/6N, 8 weeks old, SPF grade, male. • 2. Experimental Drugs: • LY2922470 (Shanghai Taoshu Biotechnology Co., Ltd.) • TAK875 (Shanghai Taoshu Biotechnology Co., Ltd.)
1) Preparation of TAK875: A total of 27 mg of TAK875 powder was accurately weighed using an analytical balance and dissolved in 9 mL of 0.8% CMC-Na solution. The mixture was sonicated for 5 minutes to form a 3 mg/mL white suspension. The suspension was stored at 4° C. for later use.
2) Preparation of LY2922470: A total of 80 mg of LY2922470 yellow crystals was added to 200 μL of DMSO to form a clear yellow solution. The solution was gradually added in batches to 10 mL of 0.8% CMC-Na solution. After heating and sonication for 5 hours, an 8 mg/mL white suspension of LY2922470 was obtained. The suspension was stored at 4° C. for later use.
Eight-week-old male C57BL/6N mice were acclimatized for one week and then randomly divided into six groups. Except for the control group, all mice were fed a 0.25% adenine-containing diet for modelling. The control group received a normal diet. The mice had free access to food. One week after model induction, mice in each group were orally administered the corresponding drug once daily in the afternoon, according to their group assignment. The control group and the model group received vehicle under a same condition. During the treatment period, the adenine-containing diet was continued. Mouse survival was monitored until the end of the experiment.

[2] = tested on: mice with adenine-induced renal failure; assay: Renal fibrosis by Masson's trichrome staining in adenine-induced renal failure mice; format: in vivo, C57BL/6N mice; settings: LY2922470 30 mg/kg/day orally for 2 weeks; 3 weeks of modeling; FIG. 6
Description: Mice were modeled and administered drugs as described in Example 3. After two weeks of drug administration, the mice were euthanized, and their kidneys were fixed, sectioned, stained with Masson's trichrome, and analyzed.
Whole-slide scanning was performed using a fully automated digital pathology scanner KF-PRO-120 from Ningbo Jiangfeng Bioinformatics Technology Co., Ltd. Masson-stained images were analyzed using the Area Quantification module in HALO software. The blue staining of collagen fibers was used as the unified criterion for positivity. The images were analyzed, and the percentage of blue-stained collagen fibers in the tissue was calculated.
Statistical analysis was conducted using GraphPad Prism 8.0. Continuous data for each group were expressed as mean+SD. One-way ANOVA was used for multi-group comparisons, and Student's t-test was used for comparisons between two groups. A p-value<0.05 was considered statistically significant. For categorical data, chi-square tests were used for comparisons among groups, and a p-value<0.05 was considered statistically significant.

CC#C[C@@H](CC(=O)O)c1ccc(OCc2ccc(CN3CCCc4cccc(OC)c43)s2)cc1 [LY2922470]
Survival Rate (%) ([1]; LY2922470 10 mg/kg p.o. QD): 0%
Count after Drug Administration (surviving mice) ([1]; LY2922470 10 mg/kg p.o. QD): 0
Day of adenine feeding by which all mice had died ([1]; LY2922470 10 mg/kg p.o. QD, deaths began on day 20): ≤ 27 days
Survival Rate (%) ([1]; LY2922470 30 mg/kg p.o. QD, 30 mg/kg): 100%
Survival Rate (%) ([1]; LY2922470 30 mg/kg p.o. QD, listed as LY): 100%
Count after Drug Administration (surviving mice) ([1]; LY2922470 30 mg/kg p.o. QD): 12
Final survival rate relative to the TAK875 group ([1]; LY2922470 30 mg/kg vs TAK875 30 mg/kg): double
Survival Rate (%) ([1]; LY2922470 60 mg/kg p.o. QD, listed as LY): 50%
Count after Drug Administration (surviving mice) ([1]; LY2922470 60 mg/kg p.o. QD): 6
Dose with optimal effect (survival) ([1]; from Table 1 survival data, p.o.): 30 mg/kg/day
Collagen deposition (Masson staining) [2]: decreased
Degree of renal fibrosis (Masson staining) [2]: alleviated
Extracellular matrix (ECM) accumulation [2]: inhibited
